This is an account of results in patent US7029916B2, “Apparatus and method for flow electroporation of biological samples” (MAXCYTE, Inc., priority 2001, dated 2006).

The target of data set [1] is T1, hemoglobin (Homo sapiens, UniProt P68871). The following applies: relative to DPG; cited from earlier work.
The target in data set [2] is T1, hemoglobin. The note with it: pH 7.4, 37° C.; cited from earlier work.
For a further data set, the system named is resting Lymphocytes. Put plainly: Transfection efficiency analysis, resting lymphocytes. It is filed as cell-based. The method, then: Primary lymphocytes were suspended in B&K buffer (125 mM KCl, 15 mM NaCl, 1.2 mM MgCl2, 3 mM glucose, 25 mM Hepes, pH 7.4) cell concentration was set from 1×10^7 cells/mL to 6×10^8 cells/mL together with DNA plasmid from 50 μg/mL to 1 mg/mL. Electroporation, 2.3 kV/cm, 400 μs, 4 pulses for small volume experiments (15 μl) or 2.2 kV/cm, 1.6 ms, 1 pulse for large volume experiments (0.5 mL–2 mL) was performed at room temperature. Following electroporation, cells were incubated in B&K buffer for 20 min at 37° C. for small volume experiments, or diluted by 10× volume of culture medium (RPMI-1640+10% fetal bovine serum+1% Pen-strep+2 mM L-glutamine) for large volume experiments. Cells were cultured in culture medium for various periods (up to 72 hours) and the transfection efficiency was analyzed.
Seven transgenes (Ds-Red, eGFP, βGal, hEndostatin, hEPO, hIFNα, hIL-2) were tested in these experiments. […] When pCMV-Ds-Red or pCMV-EGFP was used, the percentage of the fluorescent cells was counted, by FACS or by manual counting under phase contrast and fluorescence microscope, as the transfection efficiency. […] When pCMV-Endostatin was used, the Endostatin concentration in the supernatant was analyzed by ELISA kit from Cytimmune Sciences, Inc. (College Park, Md.). For pCMV-EPO electroporation, the erythropoietin concentration in the supernatant was analyzed by R&D ELISA kit (Minneapolis, Minn.).

Where only a bound is given, the exact number is not on record here.

T1 sequence (P69905 2-142 partner limits assumed): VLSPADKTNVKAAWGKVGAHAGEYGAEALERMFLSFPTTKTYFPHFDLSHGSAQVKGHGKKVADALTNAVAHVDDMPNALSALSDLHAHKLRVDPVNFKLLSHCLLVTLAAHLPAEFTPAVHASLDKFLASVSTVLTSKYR
T1 sequence (P68871 2-147 limits assumed): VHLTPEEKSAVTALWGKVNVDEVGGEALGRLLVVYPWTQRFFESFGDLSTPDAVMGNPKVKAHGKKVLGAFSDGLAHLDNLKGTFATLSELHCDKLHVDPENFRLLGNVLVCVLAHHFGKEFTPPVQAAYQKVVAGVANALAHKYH

For the compound `O=P(O)(O)O[C@H]1[C@H](OP(=O)(O)O)[C@@H](OP(=O)(O)O)[C@H](OP(=O)(O)O)[C@@H](OP(=O)(O)O)[C@H]1OP(=O)(O)O` [IHP, inositol hexaphosphate], at hemoglobin [1], the “affinity to hemoglobin, higher than DPG” value is given as 1000 fold. For the same compound, the P50 of hemoglobin on hemoglobin [2] is on record as no more than 96.4 mm Hg.
For βGal, in the data set on resting Lymphocytes, the “Efficiency (% of + cells)” value is given as 15% and the Viability was 40%.
